For one series, the target named is T1, human chymase (Homo sapiens, UniProt P23946).
T1 construct: made in house; host or cells: insect cells (Tn5) infected with recombinant baculovirus
T1 sequence (P23946 22-247): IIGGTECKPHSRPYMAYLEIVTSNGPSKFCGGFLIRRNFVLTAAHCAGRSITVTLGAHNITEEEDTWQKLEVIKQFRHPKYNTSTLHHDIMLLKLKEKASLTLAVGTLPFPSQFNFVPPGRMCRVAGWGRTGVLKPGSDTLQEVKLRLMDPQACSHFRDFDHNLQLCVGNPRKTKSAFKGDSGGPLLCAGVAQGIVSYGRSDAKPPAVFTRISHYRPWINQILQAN
Put plainly: Determination of chymase-inhibiting activity (Test Example 1). The note with it: activated human recombinant chymase; substrate succinyl-alanyl-histidyl-prolyl-phenylalanyl-para-nitroanilide; buffer pH 8.0; room temperature, 5 minutes; absorbance at 405 nm; read-out: 50% inhibitory concentrations (IC50) against the human chymase. It counts as biochemical. The method, then: In this Example, the chymase-inhibiting activity of SF2809 substances was determined as described below.
A human recombinant chymase was prepared in accordance with the method of Urata et al's report (Urata et al., J. Biol. Chem., Vol. 266, p.17173, 1991). Thus, cultivation was made of insect cells (Tn5) which had been infected with recombinant baculovirus containing therein such cDNA that encodes the human chymase. The resulting culture of the insect cells was filtered and the resultant supernatant was treated with Heparin-sepharose (Pharmacia's product) to recover the chymase. The chymase so recovered was then purified. Then, the purified chymase was activated in accordance with the method of Murakami et al's report (Murakami et al, J. Biol. Chem., Vol. 270, p.2218, 1991), after which the activated chymase was purified with Heparin-sepharose to afford an activated type of human chymase.
To 50 μl of a buffer A (comprising 0.5˜3.0 M NaCl, 50 mM tris hydrochloric acid, pH 8.0) which contained 1˜5 ng of the active-type of human chymase as prepared in (1) above, there was added 2 μl of a solution in dimethylsulfoxide (DMSO) of an SF2809 substance as the test substance. Then, to the resulting mixture, there was added 50 μl of a buffer A which contained 0.5 mM of succinyl-alanyl-histidyl-prolyl-phenylalanyl-para-nitroanilide (Buckem's product) as a substrate. The resultant admixture was incubated at room temperature for 5 minutes. The change in the absorbance at 405 nm of the reaction solution was measured with passage of the incubation time, thereby to examine the chymase-inhibiting activity of the SF2809 substance under test.

Series [1] is described as follows: Solubility (physicochemical properties). The note with it: in methanol, ethyl acetate, dimethylsulfoxide, chloroform, hexane and water; result in words.

In the case of `CC(=O)NCCc1c(Cc2c(O)c3ccccc3n(C)c2=O)[nH]c2ccccc12` [SF2809-I substance], at human chymase, the IC50 amounted to 7300 nM. For the same compound, in series [1], the Solubility result is “Soluble in methanol, ethyl acetate and dimethylsulfoxide; sparingly soluble in chloroform; and insoluble in hexane and water”.
Turning to `CC(=O)NCCc1c(C(c2ccc(O)cc2)c2c(O)c3ccccc3n(C)c2=O)[nH]c2ccccc12` (stereo not drawn) [SF2809-II substance], the IC50 on human chymase came to 41 nM. Moreover, the Solubility entry in series [1] was “Soluble in methanol, ethyl acetate and dimethylsulfoxide; sparingly soluble in chloroform; and insoluble in hexane and water”.
With `Cn1c(=O)c(Cc2[nH]c3ccccc3c2CCO)c(O)c2ccccc21` [SF2809-III substance], the IC50 at human chymase came out at 2100 nM. Further, the Solubility entry in series [1] was “Soluble in methanol, ethyl acetate and dimethylsulfoxide; sparingly soluble in chloroform; and insoluble in hexane and water”.
For the compound `Cn1c(=O)c(C(c2ccc(O)cc2)c2[nH]c3ccccc3c2CCO)c(O)c2ccccc21` (stereo not drawn) [SF2809-IV substance], the IC50 at human chymase turned out to be 81 nM. In addition, the Solubility result in series [1] was “Soluble in methanol, ethyl acetate and dimethylsulfoxide; sparingly soluble in chloroform; and insoluble in hexane and water”.
Regarding `CC(=O)NCCc1c(C(c2ccccc2)c2c(O)c3ccccc3n(C)c2=O)[nH]c2ccccc12` (stereo not drawn) [SF2809-V substance], the IC50 at human chymase is 43 nM. In addition, the Solubility result in series [1] is “Soluble in methanol, ethyl acetate, dimethylsulfoxide and chloroform; and insoluble in hexane and water”.
Regarding `Cn1c(=O)c(C(c2ccccc2)c2[nH]c3ccccc3c2CCO)c(O)c2ccccc21` (stereo not drawn) [SF2809-VI substance], the IC50 on human chymase stood at 14 nM. The Solubility entry in series [1] was “Soluble in methanol, ethyl acetate, dimethylsulfoxide and chloroform; and insoluble in hexane and water”.

These data come from patent US6432978B1, “SF2809-I,II,III,IV,V and VI substances exhibiting chymase-inhibiting activities” (Meiji Seika Kaisha, Ltd., priority 1998, dated 2002).
